Where “and” joins values, the source holds several entries; their conditions need not be identical. Equal values may be shown once.
Assays:
[1] = molecular target: T1, Gamma-aminobutyric acid receptor subunit alpha-1 (Homo sapiens, UniProt P14867)
T1 sequence (P14867 whole entry): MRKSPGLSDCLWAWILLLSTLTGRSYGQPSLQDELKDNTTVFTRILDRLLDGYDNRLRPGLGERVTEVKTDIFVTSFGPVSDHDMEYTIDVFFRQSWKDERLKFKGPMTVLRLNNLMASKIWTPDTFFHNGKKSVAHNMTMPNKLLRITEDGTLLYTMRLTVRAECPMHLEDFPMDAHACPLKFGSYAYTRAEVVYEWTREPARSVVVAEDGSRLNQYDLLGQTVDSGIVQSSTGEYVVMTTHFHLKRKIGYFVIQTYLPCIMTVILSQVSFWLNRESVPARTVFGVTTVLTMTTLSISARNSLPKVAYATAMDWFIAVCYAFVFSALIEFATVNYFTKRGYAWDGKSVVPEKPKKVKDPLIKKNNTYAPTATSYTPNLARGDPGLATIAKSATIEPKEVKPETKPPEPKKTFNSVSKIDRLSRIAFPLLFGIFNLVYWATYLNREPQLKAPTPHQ

[2] = molecular target: Gamma-aminobutyric acid receptor subunit alpha-1 (Rattus norvegicus, UniProt P62813)
Sequence of Gamma-aminobutyric acid receptor subunit alpha-1 (Rattus norvegicus, UniProt P62813) (P62813 whole entry): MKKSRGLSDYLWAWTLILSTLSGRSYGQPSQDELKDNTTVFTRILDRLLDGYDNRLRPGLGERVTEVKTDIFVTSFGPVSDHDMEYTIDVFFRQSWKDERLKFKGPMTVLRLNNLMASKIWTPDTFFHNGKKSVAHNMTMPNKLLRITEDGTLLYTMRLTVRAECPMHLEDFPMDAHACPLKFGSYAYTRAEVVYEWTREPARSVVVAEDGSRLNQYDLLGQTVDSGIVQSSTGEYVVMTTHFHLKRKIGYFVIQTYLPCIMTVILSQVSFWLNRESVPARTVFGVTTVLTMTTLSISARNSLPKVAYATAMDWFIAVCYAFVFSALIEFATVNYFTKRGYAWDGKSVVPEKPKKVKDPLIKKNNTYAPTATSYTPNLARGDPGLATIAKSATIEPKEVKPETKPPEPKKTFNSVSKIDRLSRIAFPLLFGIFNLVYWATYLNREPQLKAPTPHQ

Row | SMILES | Ki [1] | Ki [2]
1 | O=C1CN=C(c2ccccc2Cl)c2cc([N+](=O)[O-])ccc2N1 [5-(2-chlorophenyl)-7-nitro-1,3-dihydro-2H-1,4-benzodiazepin-2-one] | > 10000 nM | > 10000 nM
2 | CC[C@@H](C)N(C)C(=O)c1cc2ccccc2c(-c2ccccc2Cl)n1 [PK 11195] | 8 nM and 5 nM | 18 nM and 3 nM and 4 nM
3 | CN1C(=O)CN=C(c2ccc(Cl)cc2)c2cc(Cl)ccc21 [Ro5-4864] | 750 nM | 

From BindingDB's records for doi:10.1016/0024-3205(91)90562-p (Technion-Israel Institute of Technology, 1991)
